Measured values reported in US10806785B2, “Immunomodulator compounds and methods of use” (Incyte Corporation, priority 2016, dated 2020).

biological target: PD-1/PD-L1 (Homo sapiens (Human), UniProt Q9NZQ7); test: PD-1/PD-L1 binding assay (HTRF)
In short: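 HTRF read-out (665/620 nm) after 60 min at 25 °C with 1 nM Eu anti-human IgG and 20 nM APC anti-His. Beforehand, inhibitors were preincubated 40 min with Fc-PD-1 (25-167, […] as listed) and His-PD-L1 (19-238, 10 nM) in PBS pH 7.4 with Tween-20, BSA, 1% DMSO; IC50 from log-concentration curve.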

Sequence of PD-1/PD-L1 (Q9NZQ7 19-238): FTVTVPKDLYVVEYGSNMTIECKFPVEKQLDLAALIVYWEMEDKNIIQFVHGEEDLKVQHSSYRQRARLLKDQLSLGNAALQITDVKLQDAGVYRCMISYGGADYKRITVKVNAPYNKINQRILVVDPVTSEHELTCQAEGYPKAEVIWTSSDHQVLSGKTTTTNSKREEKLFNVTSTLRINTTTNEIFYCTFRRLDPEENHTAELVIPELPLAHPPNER

IC50, ≤ 10 nM:
Cc1c(NC(=O)c2nc3c(n2C)CCN(C[C@H](O)CO)C3)cccc1-c1cccc(NC(=O)c2nc3c(n2C)CCN(C)C3)c1Cl [Example 32, (S)—N-(2′-chloro-3′-(1,5-dimethyl-4,5,6,7-tetrahydro-1H-imidazo[4,5-c]pyridine-2-carboxamido)-2-methylbiphenyl-3-yl)-5-(2,3-dihydroxypropyl)-1-methyl-4,5,6,7-tetrahydro-1H-imidazo[4,5-c]pyridine-2-carboxamide]
C[C@@H](O)CN1CCc2c(nc(C(=O)Nc3cccc(-c4cccc(NC(=O)c5nc6c(n5C)CCN(C)C6)c4C#N)c3Cl)n2C)C1 [Example 40, (R)—N-(2-chloro-2′-cyano-3′-(1,5-dimethyl-4,5,6,7-tetrahydro-1H-imidazo[4,5-c]pyridine-2-carboxamido)biphenyl-3-yl)-5-(2-hydroxypropyl)-1-methyl-4,5,6,7-tetrahydro-1H-imidazo[4,5-c]pyridine-2-carboxamide]
Cn1c(C(=O)Nc2cccc(-c3cccc(NC(=O)c4nc5c(n4C)CCN(C4CCC(O)CC4)C5)c3Cl)c2Cl)nc2c1CCN(C[C@H]1CC[C@H](C(=O)O)CC1)C2 (stereo partly drawn) [144 (compound 144-1), trans-4-((2-((2,2′-dichloro-3′-(5-(4-hydroxycyclohexyl)-1-methyl-4,5,6,7-tetrahydro-1H-imidazo[4,5-c]pyridine-2-carboxamido)-[1,1′-biphenyl]-3-yl)carbamoyl)-1-methyl-1,4,6,7-tetrahydro-5H-imidazo[4,5-c]pyridin-5-yl)methyl)cyclohexane-1-carboxylic acid]
CCN1CCc2c(nc(C(=O)Nc3cccc(-c4cccc(NC(=O)c5nc6c(n5C)CCN(C[C@H]5CC[C@H](C(=O)O)CC5)C6)c4C#N)c3Cl)n2C)C1 [Compound 156, trans-4-((2-((2′-chloro-2-cyano-3′-(5-ethyl-1-methyl-4,5,6,7-tetrahydro-1H-imidazo[4,5-c]pyridine-2-carboxamido)-[1,1′-biphenyl]-3-yl)carbamoyl)-1-methyl-1,4,6,7-tetrahydro-5H-imidazo[4,5-c]pyridin-5-yl)methyl)cyclohexane-1-carboxylic acid]
Cc1c(NC(=O)c2nc3c(n2C)CCN(C2CCOCC2)C3)cccc1-c1cccc(NC(=O)c2nc3c(n2C)CCN(C[C@H]2CC[C@@H](C(=O)O)CC2)C3)c1Cl [Example 136, cis-4-((2-((2-chloro-2′-methyl-3′-(1-methyl-5-(tetrahydro-2H-pyran-4-yl)-4,5,6,7-tetrahydro-1H-imidazo[4,5-c]pyridine-2-carboxamido)-[1,1′-biphenyl]-3-yl)carbamoyl)-1-methyl-1,4,6,7-tetrahydro-5H-imidazo[4,5-c]pyridin-5-yl)methyl)cyclohexane-1-carboxylic Acid]
CCC1(C(=O)O)CCC(N2CCc3c(nc(C(=O)Nc4cccc(-c5cccc(NC(=O)c6nc7c(n6C)CCN(C)C7)c5Cl)c4C)n3C)C2)CC1 (stereo not shown) [Example 104, 4-(2-((2′-chloro-3′-(1,5-dimethyl-4,5,6,7-tetrahydro-1H-imidazo[4,5-c]pyridine-2-carboxamido)-2-methyl-[1,1′-biphenyl]-3-yl)carbamoyl)-1-methyl-1,4,6,7-tetrahydro-5H-imidazo[4,5-c]pyridin-5-yl)-1-ethylcyclohexane-1-carboxylic acid]
Cc1c(NC(=O)c2nc3c(n2C)CCN(C2CCC(O)CC2)C3)cccc1-c1cccc(NC(=O)c2nc3c(n2C)CCN(CC[C@H]2CC[C@H](C(=O)O)CC2)C3)c1Cl (single isomer, unassigned) [Compound 134-1, Trans-4-(2-(2-(2-chloro-3′-(5-(4-hydroxycyclohexyl)-1-methyl-4,5,6,7-tetrahydro-1H-imidazo[4,5-c]pyridine-2-carboxamido)-2′-methylbiphenyl-3-ylcarbamoyl)-1-methyl-6,7-dihydro-1H-imidazo[4,5-c]pyridin-5(4H)-yl)ethyl)cyclohexane-1-carboxylic Acid]
